Entries after “also recorded” stand apart in the source; their conditions may differ.
What was measured:
[1] = Dose titration laboratory study (10 days): capromorelin serum levels; format: in vivo; conditions: cats
Experimental: (§1) This study defined a capromorelin oral solution dose regime that provides increased food intake and weight gain and the accompanying desired profile of IGF-1 serum levels. Laboratory adult cats were housed individually and divided into five groups (3/sex/group; n=6/group). Cats were dosed once daily for 10 consecutive days with either placebo, 1 mg/kg AT-002, 2 mg/kg AT-002, 3 mg/kg AT-002 or 4 mg/kg AT-002. The test article was a flavored solution formulation very similar to the final formulation. Study activities are summarized at Table 5.

IGF-1 [2] = assay: Dose titration laboratory study (10 days): serum IGF-1; format: in vivo; conditions: cats
Experimental: as §1

IGF-1 [3] = assay: Capromorelin efficacy in cats for 21 days: serum IGF-1 levels; format: in vivo
Experimental: Thirty-two cats (16 neutered males, 16 females) were divided into 4 treatment groups including 4 animals of each sex per group. The cats were acclimated to the study environment for 10 days prior to study start. All cats were orally dosed with placebo (Group 1) or capromorelin (30 mg/ml oral solution, Formulation 9 as described above) at 1 mg/kg (Group 2), 2 mg/kg (Group 3) or 3 mg/kg (Group 4), for 21 days, with dosing starting on Day 1. Physical examinations were performed on Day −10 and general health observations made daily. Body weights were evaluated on Days −10, −8, −1, 1, 8, 15 and 22 days. Cats were fed about 1 hour after dosing. Commercial dry cat food (300 g) was provided for 5 hours and then removed and the amount of food consumed (g) calculated per cat. On Days 1, 14 and 21, blood samples were collected prior to daily dose administration and at 8 hours post-dose and serum processed for measurement of IGF-1 levels.

GH = assay: 91-day cat safety study: serum GH; format: in vivo; conditions: cats, 6 mg/kg, compared to placebo controls; attenuated through Days 30, 59, 91
Experimental: This controlled study included two treatment groups with 4 adult cats receiving placebo (Group 1) and 8 adult cats receiving capromorelin (Formulation #9, as described above) (Group 2) for 91 consecutive days. All cats were offered food daily for a 6-hour period following an 11-day acclimation phase. All cats were weighed on Days −11, −1, 1, 14, 30, 59, 75, and 91. On Days 1 through 91, animals were orally administered capromorelin once daily via syringe at dose levels of 0 or 6 mg/kg. At one hour post-dose, all cats were offered food for a 6-hour period. Variables of interest included weight gain/loss, food consumption, clinical pathology, and serum analysis of IGF-1 and GH.
On Days 1, 30, 59, and 91, blood samples were collected prior to daily dose administration and at 8 hours post-dose and processed to serum for analysis of IGF-1 and GH levels. […] Serum chemistry parameters measured included albumin (ALB), creatine kinase (CK), albumin/globulin ratio (A\G), globulin (GLOB), alkaline phosphatase (ALP), glucose (GLU), fructosamine, alanine aminotransferase (ALT), blood urea nitrogen (BUN), phosphorus (PHOS), calcium (Ca), potassium (K), chloride (Cl), sodium (Na), cholesterol (CHOL), total protein (TP), creatinine (CRE), total bilirubin (TBIL), BUN/creatinine ratio, and sodium/potassium ratio.

[4] = Laboratory cats modelling CKD safety pilot study; format: in vivo
From the text: This study sought to define a capromorelin pharmacokinetic profile in serum of cats with compromised kidney function, to determine if accumulation of capromorelin in serum occurred after 14 days of treatment, and to observe cats for any potential adverse effects of treatment not seen in normal cats. The target population for the capromorelin oral solution included cats with CKD. Therefore, this study used laboratory with significant portions of their kidneys surgically removed and subsequently compromised kidney function indicated by increased serum creatinine and BUN. These cats were developed as a model by Charles River, and are maintained at a colony at their facility in Ballina, Ireland.
Sixteen cats with compromised kidney function were enrolled in the study and randomized to three groups. Animals assigned to Group 1 (n=6) were administered AT-002 once on Day 0 by intravenous catheter at a dose rate of 0.75 mg/kg per cat. Animals assigned to Group 2 (n=6) were administered the AT-002 daily for 14 days by subcutaneous injection at a dose rate of 2 mg/kg. Subcutaneous and intravenous treatment routes were used to assure that sufficient drug exposure occurred. Animals assigned to Group 3 (n=4) served as untreated controls.
Blood samples were collected for capromorelin and/or IGF-1 analysis from animals assigned to Group 1 on Study Day 0. Blood samples were also collected from animals assigned to Groups 2 and 3 on Study Days −1 and 13 (prior to dosing) for hematology and clinical chemistry analysis. Appetite was assessed by food intake and weight gain. Bodyweight measurements were performed on Days −7, −1 (all groups) and on Day 13 (Groups 2 and 3 only). Food intake was monitored from Day −7 to Day 13 inclusive for animals assigned to Groups 2 and 3. Animals were observed daily for clinical signs.

IGF-1 [5] = assay: One-year dog safety study: IGF-1 plasma levels; format: in vivo, Beagle dogs; conditions: dogs, following treatment, sustained over time to Day 351
Experimental: (§2) This study evaluated the safety of capromorelin in dogs. Thirty-two Beagle dogs were randomly assigned to four groups (n=4/sex/group) and received 0 mg/kg, 0.39 mg/kg, 9.2 mg/kg, or 52.4 mg/kg capromorelin (with the dose calculated per the tartrate salt) once daily by oral gavage for 12 consecutive months. Safety parameters were evaluated including clinical signs, food consumption, bodyweight, clinical pathology, urinalysis, ophthalmology, electrocardiogram and vital signs. Capromorelin, GH and IGF-1 were measured in plasma samples collected at various time points during the study. At the end of the dosing period, dogs were humanely euthanized and necropsied. Selected organs were weighed and tissue samples collected and processed for microscopic examination.

[6] = Safety of capromorelin administered daily to Beagle dogs for one year; format: in vivo; conditions: for high dose relative to proposed clinical dose for dogs (safety margin): 52.4 mg/kg vs proposed clinical dose; for high dose relative to proposed clinical dose for dogs (safety margin) / tolerability / toxicity: L-tartrate; for tolerability / toxicity: oral gavage once daily, doses up to 52.4 mg/kg
Experimental: as §2

## CN1N=C2CCN(C(=O)[C@@H](COCc3ccccc3)NC(=O)C(C)(C)N)C[C@@]2(Cc2ccccc2)C1=O.O=C(O)C(O)C(O)C(=O)O [capromorelin, N-[(2R)-1-[(3aR)-2-methyl-3-oxo-3a-(phenylmethyl)-6,7-dihydro-4H-pyrazolo[4,3-c]pyridin-5-yl]-1-oxo-3-(phenylmethoxy)propan-2-yl]-2-amino-2-methylpropanamide L-tartrate]
[1]; 10 days once daily
  capromorelin accumulation in serum: no evidence of capromorelin accumulation
[1]; all AT-002 treated groups
  capromorelin serum concentrations by 8 hours post-dose: very low levels
[1]; oral flavored solution
  absorption: well absorbed
[1]; oral solution 1-4 mg/kg, post-dose
  time of maximum serum concentrations: ≤ 30 min
IGF-1 [2]; following treatment, Days 1 and 10
  time of initial IGF-1 response (increase): about 4 hours
IGF-1 [2]; once-a-day dosing
  duration of elevated IGF-1 levels post-dose: 24 h
IGF-1 [2]; post-dose, Days 1 and 10
  time to maximum relatively steady IGF-1 level: ≤ 8 h
IGF-1 [3]; 1 mg/kg (Group 2), Day 1
  group mean serum IGF-1 increase from 0 to 8 hours post-dose: 46.69%
IGF-1 [3]; 1 mg/kg (Group 2), Day 14
  group mean serum IGF-1 increase from 0 to 8 hours post-dose: 17.27%
IGF-1 [3]; 1 mg/kg (Group 2), Day 21
  group mean serum IGF-1 increase from 0 to 8 hours post-dose: 9.81%
IGF-1 [3]; 2 mg/kg (Group 3), Day 1
  group mean serum IGF-1 increase from 0 to 8 hours post-dose: 29.38%
IGF-1 [3]; 2 mg/kg (Group 3), Day 14
  group mean serum IGF-1 increase from 0 to 8 hours post-dose: 9.00%
IGF-1 [3]; 2 mg/kg (Group 3), Day 21
  group mean serum IGF-1 increase from 0 to 8 hours post-dose: 2.68%
IGF-1 [3]; 3 mg/kg (Group 4), Day 1
  group mean serum IGF-1 increase from 0 to 8 hours post-dose: 36.77%
IGF-1 [3]; 3 mg/kg (Group 4), Day 14
  group mean serum IGF-1 increase from 0 to 8 hours post-dose: 18.56%
IGF-1 [3]; 3 mg/kg (Group 4), Day 21
  group mean serum IGF-1 increase from 0 to 8 hours post-dose: 5.17%
GH
  GH following treatment: increased
[4]; Group 2, 2 mg/kg/day subcutaneous, Day -7 to Day 13
  bodyweight: lost bodyweight
[4]; cats with compromised kidney function, 2 mg/kg subcutaneous daily 14 days
  appetite stimulation (food intake, bodyweight): unable to stimulate appetite
[4]; cats with compromised kidney function, IV 0.75 mg/kg once or SC 2 mg/kg daily 14 days
  drug accumulation (pharmacokinetic profiles): no evidence of drug accumulation
IGF-1 [5]
  IGF-1 plasma levels: increased
[6]; 52.4 mg/kg and 9.2 mg/kg groups, 1 to 2 hours following dosing
  pressure rate quotient (PRQ) interval, electrocardiogram: slight increases
[6]; 52.4 mg/kg dose
  absolute liver weights: Increased
[6]; 52.4 mg/kg group
  red blood cells, hemoglobin and hematocrit: slight deceases
[6]; 52.4 mg/kg group compared to placebo
  cholesterol, HDL and alkaline phosphatase serum levels: statistically significantly increased
[6]
  high dose relative to proposed clinical dose for dogs (safety margin): about 17.5 times
[6]; listed as Capromorelin
  high dose relative to proposed clinical dose for dogs (safety margin): approximately 17.5 times
[6]; all capromorelin treated groups
  hepatocellular cytoplasmic vacuolation: slight increase
[6]; dogs, 12 months, noted sporadically
  clinical signs related to capromorelin: salivation and loose stool
[6]; dogs, Days 90, 181 and 349
  capromorelin plasma levels: accumulation: no accumulation of drug
[6]; dogs, higher dose treatments
  reddening/swollen paws: increased incidence
[6]; dogs, 12 months
  tolerability / toxicity: well-tolerated; also recorded: favorable toxicology
[6]; dogs, 12 months, listed as Capromorelin
  tolerability / toxicity: minimal toxicity
[6]; dogs, up to 52.4 mg/kg daily, 12 months
  effects on food consumption, bodyweight, ophthalmic exams, vital signs or gross pathology: no negative effects

Reference: patent publication US10064909B2, “Compositions and methods for chronic use of a weight-gaining compound” (priority 2015, dated 2018)
